Values quoted from earlier work, collected in PubChem BioAssay AID1259410 (Chemical Carcinogenesis Research Information System (CCRIS), 2018).

Tested on: rodent tumor promotion studies, tumor incidence
Test: CCRIS tumor promotion studies

O=C(O)/C=C/c1ccc(O)c(O)c1
outcome (Carcinogen: DIETHYLNITROSAMINE, 55-18-5, N-METHYLNITROSOUREA, 684-93-5, 1,2-DIMETHYLHYDRAZINE, 540-73-8, N-BUTYL-N-(4-HYDROXYBUTYL)N, Carcinogen: DIETHYLNITROSAMINE, 55-18-5, N-METHYLNITROSOUREA, 684-93-5, 1,2-DIMETHYLHYDRAZINE, 540-73-8, N-BUTYL-N-(4-HYDROXYBUTYL)N, Doses [Carcinogen]: 100 MG/KG BW DEN ONCE FOLLOWED BY 20 MG/KG BW MNU 2/WK FOR 2 WK THEN 40 MG/KG BW DMH 2/WK FOR THE NEXT 2WK, 0.05% BBN IN, Doses [Promoter]: 0, 0.4% IN DIET FOR 24 WK BEGINNING POST CARCINOGEN TREATMENT (STUDY DURATION: 28 WK), Route [Carcinogen]: INTRAPERITONEAL, INTRAPERITONEAL, SUBCUTANEOUS, ORAL, Route [Carcinogen]: INTRAPERITONEAL, INTRAPERITONEAL, SUBCUTANEOUS, ORAL, Route [Promoter]: ORAL, Species: RAT, Strain/Sex: F344/MALE): forestomach: papilloma | outcome (Carcinogen: N-METHYL-N'-NITRO-N-NITROSOGUANIDINE, 70-25-7, Doses [Carcinogen]: 150 MG/KG BW IN 50% DMSO ONCE, Doses [Promoter]: 1% IN DIET BEGINNING 1 WK POST CARCINOGEN TREATMENT FOR 51 WK (STUDY DURATION: 52 WK), Route [Carcinogen]: GAVAGE, Route [Promoter]: ORAL, Species: RAT, Strain/Sex: F344/MALE): forestomach: papilloma, squamous cell carcinoma

CCCCCCCCCCCCCCCCCC(=O)OCCOC[C@@H](OCCO)[C@H]1OC[C@@H](OCCO)[C@@H]1OCCO
outcome (Carcinogen: 7,12-DIMETHYLBENZ(A)ANTHRACENE, Doses [Carcinogen]: TOP, Route [Carcinogen]: DERMAL, Route [Promoter]: DERMAL, Species: MOUSE, Strain/Sex: MALE): integumentary system (skin)

CCC(=O)Oc1ccc2c(c1)CC[C@@H]1[C@@H]2CC[C@]2(C)[C@@H](OC(=O)CC)CC[C@@H]12
outcome (Carcinogen: 1,2-DIMETHYLHYDRAZINE, 540-73-8, Doses [Carcinogen]: 8 MG/KG BW 1/WK FOR 20 WK, Doses [Promoter]: 0, 0.1 ML OF A SOLUTION IN OLIVE OIL 1/WK FOR 30 WK ADMINISTERED 1 DAY PRIOR TO EACH CARCINOGEN DOSE AND CONTINUING FOR, Route [Carcinogen]: SUBCUTANEOUS, Route [Promoter]: SUBCUTANEOUS, Species: MOUSE, Strain/Sex: C3H/FEMALE): uterus: sarcoma

OC[C@H]1O[C@@H]2O[C@H]3[C@H](O)[C@@H](O)[C@@H](O[C@H]4[C@H](O)[C@@H](O)[C@@H](O[C@H]5[C@H](O)[C@@H](O)[C@@H](O[C@H]6[C@H](O)[C@@H](O)[C@@H](O[C@H]7[C@H](O)[C@@H](O)[C@@H](O[C@H]8[C@H](O)[C@@H](O)[C@@H](O[C@H]1[C@H](O)[C@H]2O)O[C@@H]8CO)O[C@@H]7CO)O[C@@H]6CO)O[C@@H]5CO)O[C@@H]4CO)O[C@@H]3CO
outcome (Carcinogen: N-ETHYL-N-(2-HYDROXYETHYL)NITROSAMINE, Doses [Carcinogen]: 500, 1000 PPM IN DIET FOR TWO WK, Doses [Promoter]: 450 MG/KG 1/D FOR 7 D AFTER INITIATION FOR 2 WK, Route [Carcinogen]: ORAL, Route [Promoter]: SUBCUTANEOUS, Species: RAT, Strain/Sex: WISTAR/MALE): kidney: tubular cell tumor

C=CCC1(C(C)C)C(=O)NC(=O)NC1=O
outcome (Carcinogen: N-NITROSODIETHYLAMINE, 55-18-5, Doses [Carcinogen]: 75 MG/KG BW IN 0.85% SALINE ONCE, Doses [Promoter]: 0, 453 PPM IN DIET FOR DURATION OF STUDY BEGINNING 2 WK POST CARCINOGEN DOSE (STUDY DURATION: 78 WK), Route [Carcinogen]: INTRAPERITONEAL, Route [Promoter]: ORAL, Species: RAT, Strain/Sex: F344/MALE): liver: adenoma

O=C1c2ccccc2C(=O)c2c(O)cccc21
outcome (Carcinogen: METHYLAZOXYMETHANOL ACETATE, 592-62-1, Doses [Carcinogen]: 25 MG/KG BW 1/WK FOR 2 WK, Doses [Promoter]: 0, 1% IN DIET FOR 42 WK BEGINNING 1 WK POST CARCINOGEN TREATMENT (STUDY DURATION: 44 WK), Route [Carcinogen]: INTRAPERITONEAL, Route [Promoter]: ORAL, Species: RAT, Strain/Sex: ACI/FEMALE): intestine: adenoma | outcome (Carcinogen: METHYLAZOXYMETHANOL ACETATE, 592-62-1, Doses [Carcinogen]: 25 MG/KG BW 1/WK FOR 2 WK, Doses [Promoter]: 0, 1% IN DIET FOR 42 WK BEGINNING 1 WK POST CARCINOGEN TREATMENT (STUDY DURATION: 44 WK), Route [Carcinogen]: INTRAPERITONEAL, Route [Promoter]: ORAL, Species: RAT, Strain/Sex: ACI/MALE): intestine: adenoma, adenocarcinoma

CCCCCCCCCC
outcome (Carcinogen: 7,12-DIMETHYLBENZ(A)ANTHRACENE, Doses [Carcinogen]: TOP, Route [Carcinogen]: DERMAL, Route [Promoter]: DERMAL, Species: MOUSE, Strain/Sex: FEMALE): integumentary system (skin) | outcome (Carcinogen: BENZO(A)PYRENE, Doses [Carcinogen]: TOP, Route [Carcinogen]: DERMAL, Route [Promoter]: DERMAL, Species: MOUSE, Strain/Sex: FEMALE): integumentary system (skin)

C[C@H](CCC(=O)O)[C@H]1CC[C@H]2[C@@H]3[C@H](O)C[C@@H]4C[C@H](O)CC[C@]4(C)[C@H]3C[C@H](O)[C@]12C
outcome (Carcinogen: AZOXYMETHANE, 25843-45-2, Doses [Carcinogen]: 15 MG/KG BW 1/WK FOR 2 WK, Doses [Promoter]: 0, 0.4% IN THE DIET FOR 28 WK BEGINNING 2 WK PRIOR TO CARCINOGEN TREATMENT (STUDY DURATION: 30 WK), Route [Carcinogen]: SUBCUTANEOUS, Route [Promoter]: ORAL, Species: RAT, Strain/Sex: F344/MALE): colon: tumor | outcome (Doses [Carcinogen]: IR, Route [Carcinogen]: RECTAL, Route [Promoter]: RECTAL, Species: RAT, Strain/Sex: FEMALE): colon

O=[As](O)(O)O
outcome (Carcinogen: 7,12-DIMETHYLBENZ[A]ANTHRACENE [57-97-6], Doses [Carcinogen]: 50 UG 2 X A WK FOR 2 WKS (STUDY DURATION: 25 WKS), Doses [Promoter]: 25 MG/L IN DRINKING WATER FOR 25 WKS, Route [Carcinogen]: DERMAL (SKIN PAINTING), Route [Promoter]: ORAL (DRINKING WATER), Species: MOUSE, Strain/Sex: SWISS NUDE HAIRLESS/MALE): skin; papillomas

Oc1ccccc1
outcome (Carcinogen: 7,12-DIMETHYLBENZ(A)ANTHRACENE, Doses [Carcinogen]: 75 UG, SINGLE DOSE, Doses [Promoter]: 0, 2.5 MG 2/WK FOR 42 WK, Route [Carcinogen]: DERMAL, Route [Promoter]: DERMAL, Species: MOUSE, Strain/Sex: FEMALE): integumentary system (skin): carcinoma

Cc1cc(=O)n(-c2ccccc2)n1C
outcome (Carcinogen: DIHYDROXY-DI-N-PROPYLNITROSAMINE, 53609-64-6, URACIL, 66-22-8, Carcinogen: DIHYDROXY-DI-N-PROPYLNITROSAMINE, 53609-64-6, URACIL, 66-22-8, Doses [Carcinogen]: 1% DHPN IN DRINKING WATER AND 3% URACIL IN DIET FOR 4 WK, Doses [Promoter]: 0, 1% IN DIET BEGINNING 1 WK POST CARCINOGEN TREATMENT AND CONTINUING FOR 35 WK (STUDY DURATION: 40 WK), Route [Carcinogen]: ORAL, ORAL, Route [Promoter]: ORAL, Species: RAT, Strain/Sex: F344/MALE): kidney: adenoma or adenocarcinoma

Cc1nccc2c1[nH]c1ccccc12
outcome (Carcinogen: N-ETHYL-N-HYDROXYETHYLNITROSAMINE, 13147-25-6, Doses [Carcinogen]: 0.1% IN DRINKING WATER FOR 2 WK, Doses [Promoter]: 0, 1000 PPM IN DIET BEGINNING 1 WK POST CARCINOGEN TREATMENT AND CONTINUING FOR 23 WK (STUDY DURATION: 26 WK), Route [Carcinogen]: ORAL, Route [Promoter]: ORAL, Species: RAT, Strain/Sex: F344/MALE): kidney: adenoma

COC[C@@H]([C@H](O)[C@H](O)C(=O)NCC[C@H](C)c1nc(/C=C/C[C@@H]2O[C@]3(C[C@@H](O)[C@@H]2C)O[C@H]([C@H](C[C@H](O)[C@H](C)[C@H](O)[C@H](C)/C=C(C)/C(C)=C/C=C/C(C)=C\C#N)OC)[C@H](OP(=O)(O)O)C3(C)C)co1)N(C)C
outcome (Carcinogen: 7,12-DIMETHYLBENZ[A]ANTHRACENE, 57-97-6, Doses [Carcinogen]: 100 UG IN 0.1 ML ACETONE TO THE DORSAL SKIN ONCE, Doses [Promoter]: 0, 0.1, 1 UG IN 0.1 ML ACETONE TO THE DORSAL SKIN 2/WK FOR 29 WK BEGINNING 1 WK POST CARCINOGEN DOSE (STUDY DURATION: 30, Doses [Promoter]: 0, 0.1, 1 UG IN 0.1 ML ACETONE TO THE DORSAL SKIN 2/WK FOR 29 WK BEGINNING 1 WK POST CARCINOGEN DOSE (STUDY DURATION: 30, Route [Carcinogen]: DERMAL, Route [Promoter]: DERMAL, Species: MOUSE, Strain/Sex: CD-1/FEMALE): skin: papilloma

O=S1(=O)N=C(O)c2ccccc21
outcome (Carcinogen: N-[4-(5-NITRO-2-FURYL)-2-THIAZOLYL]FORMAMIDE, 24554-26-5, Doses [Carcinogen]: 0.2% IN DIET FOR 6 WK, Doses [Promoter]: 0, 3.12% IN PROLAB DIET FOR 72 WK BEGINNING POST CARCINOGEN TREATMENT (STUDY DURATION: 78 WK), Route [Carcinogen]: ORAL, Route [Promoter]: ORAL, Species: RAT, Strain/Sex: F344/MALE): urinary bladder: carcinoma | outcome (Carcinogen: N-[4-(5-NITRO-2-FURYL)-2-THIAZOLYL]FORMAMIDE, 24554-26-5, Doses [Carcinogen]: 0.2% IN DIET FOR 6 WK, Doses [Promoter]: 0, 5.2% IN PROLAB DIET FOR 72 WK BEGINNING POST CARCINOGEN TREATMENT (STUDY DURATION: 78 WK), Route [Carcinogen]: ORAL, Route [Promoter]: ORAL, Species: RAT, Strain/Sex: F344/MALE): urinary bladder: carcinoma, carcinoma or papilloma

CCCCCCCCCCCCCCCCCC
outcome (Carcinogen: 7,12-DIMETHYLBENZ(A)ANTHRACENE, Doses [Carcinogen]: TOP, Route [Carcinogen]: DERMAL, Route [Promoter]: DERMAL, Species: MOUSE, Strain/Sex: MALE,FEMALE): integumentary system (skin)
